Experimental data from patent publication US20060142321A1, “5-HT7 receptor antagonists” (priority 2004, published 2006).
Where a name gives a salt, the structure may show the parent alone.

Target: T1, Cloned Human Serotonin Receptor, Subtype 7 (h5HT7) (Homo sapiens, UniProt P34969)
T1 construct: purchased PerkinElmer 6120512; host or cells: CHO cells (membranes coated on Basic FlashPlate SMP200)
Assay: Radioligand binding assay, [125I]LSD, cloned h5HT7 expressed in CHO cells (Flashplate)
Conditions: [125I]LSD 0.82 nM, room temperature, 240 minutes, read-out: 5-HT7 IC-50
Protocol: Biological Assays Radioligand Binding
Radioligand binding assays were performed using the Cloned Human Serotonin Receptor, Subtype 7 (h5HT7), expressed in CHO cells, coated on Flashplate (Basic FlashPlate Cat.: SMP200) from PerkinElmer (Cat.: 6120512). The protocol assay was essentially the recommended protocol in the Technical Data Sheet by PerkinEmer Life and Analytical Sciences. The Mass membrane protein/well was typically 12 μg and the Receptor/well was about 9-10 fmoles. The Flashplate were let equilibrate at room temperature for one hour before the addition of the components of the assay mixture. The binding buffer was: 50 mM Tris-HCl, pH 7.4, containing 10 mM MgCl2, 0.5 mM EDTA and 0.5% BSA. The radioligand was [^125I]LSD at a final concentration of 0.82 nM. Nonspecific binding was determined with 50 μM of Clozapine. The assay volume was 25 μl. TopSeal-A were applied onto Flashplate microplates and they were incubated at room temperature for 240 minutes in darkness. The radioactivity were quantified by liquid scintillation spectrophotometry (Wallac 1450 Microbeta Trilux) with a count delay of 4 minutes prior to counting and a counting time of 30 seconds per well. Competition binding data were analyzed by using the LIGAND program (Munson and Rodbard, LIGAND: A versatile, computerized approach for characterization of ligand-binding systems. Anal. Biochem. 107: 220-239, 1980) and assays were performed in triplicate determinations for each point.

T1 sequence (P34969 whole entry): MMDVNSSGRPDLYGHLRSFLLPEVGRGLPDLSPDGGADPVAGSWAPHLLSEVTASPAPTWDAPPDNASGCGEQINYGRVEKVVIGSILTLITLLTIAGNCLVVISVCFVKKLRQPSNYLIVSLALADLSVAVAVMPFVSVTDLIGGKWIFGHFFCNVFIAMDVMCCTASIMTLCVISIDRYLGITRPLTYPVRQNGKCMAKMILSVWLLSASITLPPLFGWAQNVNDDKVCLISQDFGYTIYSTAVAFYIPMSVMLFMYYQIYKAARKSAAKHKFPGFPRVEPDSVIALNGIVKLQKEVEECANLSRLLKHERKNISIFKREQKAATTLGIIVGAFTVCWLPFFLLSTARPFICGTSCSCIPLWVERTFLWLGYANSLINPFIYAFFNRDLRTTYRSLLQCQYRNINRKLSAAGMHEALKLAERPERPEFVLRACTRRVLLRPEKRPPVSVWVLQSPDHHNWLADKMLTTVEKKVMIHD

| IC50 [nM] | SMILES |
| --- | --- |
| 79.2 | Cc1cc(S(=O)(=O)NCCCCN2CCc3cccc4c3C2CC4)c(C)cc1Cl (stereo not shown) [Compound 7, 4-Chloro-2,5-dimethyl-N-[4-(2,2a,4-5-tetrahydro-1H-3-aza-acenaphthylen-3-yl)-butyl]-benzenesulfonamide hydrochloride] |
| 142 | O=S(=O)(NCCCN1CCc2cccc3c2C1CC3)c1cc(Cl)ccc1Cl (stereo not shown) [Compound 15, 2,5-Dichloro-N-[3-(2,2a,4-5-tetrahydro-1H-3-aza-acenaphthylen-3-yl)-propyl]-benzenesulfonamide hydrochloride] |
| 156 | COc1cc2c3c(c1OC)CCC3N(CCCNS(=O)(=O)c1cc(Cl)ccc1Cl)CC2 (stereo not shown) [Compound 56, 2,5-Dichloro-N-[3-(7,8-dimethoxy-2,2a,4-5-tetrahydro-1H-3-aza-acenaphthylen-3-yl)-propyl]-benzene sulfonamide hydrochloride] |
| 189 | COc1cc2c3c(c1OC)CCC3N(CCCNS(=O)(=O)c1cc(F)c(F)cc1Cl)CC2 (stereo not shown) [Compound 58, 2-Chloro-N-[3-(7,8-dimethoxy-2,2a,4-5-tetrahydro-1H-3-aza-acenaphthylen-3-yl)-propyl]-4,5-difluoro-benzene sulfonamide hydrochloride] |
